The source of these data is US20230064983A1 (priority 2020, published 2023).

Where “and” joins values, the source holds several entries; their conditions need not be identical. Equal entries are not always repeated. Where two headings read alike, the source gives them in different places.

For test [1], the target named is T1, EGFR with insertion SVD between D770 and N771 (mutEGFR D770_N771insSVD) (Homo sapiens, UniProt P00533, DUP768-770).
T1 construct: amino acids R669 to A1210; made in house; host or cells: Sf9 insect cells (baculovirus)
In words: Exon20-Mutant-EGFR(D770_N771insSVD) kinase assay (TR-FRET). In kind it is biochemical. Conditions: 2 mM ATP, Table 2.

The next test concerns the target T2, Bub1 (Homo sapiens, UniProt O43683).
T2 construct: catalytic domain of human Bub1 (amino acids 704-1085); His6 (N); made in house; host or cells: insect cells (Hi5)
In words: Bub1 high ATP kinase assay (TR-FRET). In kind it is biochemical. Conditions: 2 mM ATP, Table 3. In short, it runs like this: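 Read-out was the 665/620 nm TR-FRET ratio after 1 h at 22 °C with EDTA stop mix (streptavidin-XL665, anti-phosphoserine antibody, Eu anti-mouse IgG). Beforehand, a biotinylated peptide was phosphorylated for 60 min at 22 °C under high ATP by His6-tagged human Bub1 residues 704-1085 expressed in Hi5 cells, about 200 ng/ml.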
A general note: In TR-FRET formats the signal depends on donor and acceptor labels being close together.

Test [2] addresses Ba/F3-EGFR-D770_N771insSVD cells (Homo sapiens, UniProt P00533, DUP768-770, cells depend on it). In words: Ba/F3 cell survival assay, EGFR D770_N771insSVD. Type of test: cell-based. The note with it: Cell Titer-Glo, 48 h, without IL-3; Table 4; read-out: BA/F3 (insSVD) IC50. A general note: ATP-based viability assays read luminescence as a measure of living cells.
The next test concerns the target Ba/F3-EGFR-WT cells (Homo sapiens, UniProt P00533). In words: Ba/F3 cell survival assay, wild type EGFR. Conditions: Cell Titer-Glo, 48 h, with 10 ng/mL EGF; Table 4; read-out: BA/F3 (wild type) IC50. In kind it is cell-based.
[3] abbreviates: Bub1 high ATP (2 mM) IC50, TR-FRET.

T2 sequence (O43683 704-1085): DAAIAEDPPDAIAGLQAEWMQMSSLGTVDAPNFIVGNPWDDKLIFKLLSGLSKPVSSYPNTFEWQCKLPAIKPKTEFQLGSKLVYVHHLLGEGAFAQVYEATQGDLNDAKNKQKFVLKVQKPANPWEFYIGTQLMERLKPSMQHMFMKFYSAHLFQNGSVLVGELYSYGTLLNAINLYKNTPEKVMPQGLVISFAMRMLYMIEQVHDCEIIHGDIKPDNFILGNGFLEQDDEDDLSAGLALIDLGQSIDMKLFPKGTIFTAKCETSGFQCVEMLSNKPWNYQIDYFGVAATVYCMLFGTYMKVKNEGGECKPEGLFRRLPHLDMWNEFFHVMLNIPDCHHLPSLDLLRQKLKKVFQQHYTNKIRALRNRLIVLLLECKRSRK
T1 sequence (P00533 other isoform, or with tags, fused parts or gaps DUP768-770): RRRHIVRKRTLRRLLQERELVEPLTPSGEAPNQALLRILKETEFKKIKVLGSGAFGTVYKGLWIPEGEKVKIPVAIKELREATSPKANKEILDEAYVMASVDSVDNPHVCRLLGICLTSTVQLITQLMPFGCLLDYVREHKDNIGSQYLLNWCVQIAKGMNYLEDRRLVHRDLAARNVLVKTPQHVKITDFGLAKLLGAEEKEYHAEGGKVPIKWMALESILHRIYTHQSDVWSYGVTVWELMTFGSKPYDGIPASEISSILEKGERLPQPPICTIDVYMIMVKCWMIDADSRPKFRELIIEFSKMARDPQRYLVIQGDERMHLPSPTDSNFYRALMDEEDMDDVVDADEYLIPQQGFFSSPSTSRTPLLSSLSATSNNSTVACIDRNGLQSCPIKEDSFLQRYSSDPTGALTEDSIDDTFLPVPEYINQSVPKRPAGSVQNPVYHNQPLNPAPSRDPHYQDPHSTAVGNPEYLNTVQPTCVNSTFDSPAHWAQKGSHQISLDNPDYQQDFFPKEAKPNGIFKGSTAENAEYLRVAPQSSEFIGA
Sequence of Ba/F3-EGFR-WT cells (P00533 whole entry, looked up, change not shown): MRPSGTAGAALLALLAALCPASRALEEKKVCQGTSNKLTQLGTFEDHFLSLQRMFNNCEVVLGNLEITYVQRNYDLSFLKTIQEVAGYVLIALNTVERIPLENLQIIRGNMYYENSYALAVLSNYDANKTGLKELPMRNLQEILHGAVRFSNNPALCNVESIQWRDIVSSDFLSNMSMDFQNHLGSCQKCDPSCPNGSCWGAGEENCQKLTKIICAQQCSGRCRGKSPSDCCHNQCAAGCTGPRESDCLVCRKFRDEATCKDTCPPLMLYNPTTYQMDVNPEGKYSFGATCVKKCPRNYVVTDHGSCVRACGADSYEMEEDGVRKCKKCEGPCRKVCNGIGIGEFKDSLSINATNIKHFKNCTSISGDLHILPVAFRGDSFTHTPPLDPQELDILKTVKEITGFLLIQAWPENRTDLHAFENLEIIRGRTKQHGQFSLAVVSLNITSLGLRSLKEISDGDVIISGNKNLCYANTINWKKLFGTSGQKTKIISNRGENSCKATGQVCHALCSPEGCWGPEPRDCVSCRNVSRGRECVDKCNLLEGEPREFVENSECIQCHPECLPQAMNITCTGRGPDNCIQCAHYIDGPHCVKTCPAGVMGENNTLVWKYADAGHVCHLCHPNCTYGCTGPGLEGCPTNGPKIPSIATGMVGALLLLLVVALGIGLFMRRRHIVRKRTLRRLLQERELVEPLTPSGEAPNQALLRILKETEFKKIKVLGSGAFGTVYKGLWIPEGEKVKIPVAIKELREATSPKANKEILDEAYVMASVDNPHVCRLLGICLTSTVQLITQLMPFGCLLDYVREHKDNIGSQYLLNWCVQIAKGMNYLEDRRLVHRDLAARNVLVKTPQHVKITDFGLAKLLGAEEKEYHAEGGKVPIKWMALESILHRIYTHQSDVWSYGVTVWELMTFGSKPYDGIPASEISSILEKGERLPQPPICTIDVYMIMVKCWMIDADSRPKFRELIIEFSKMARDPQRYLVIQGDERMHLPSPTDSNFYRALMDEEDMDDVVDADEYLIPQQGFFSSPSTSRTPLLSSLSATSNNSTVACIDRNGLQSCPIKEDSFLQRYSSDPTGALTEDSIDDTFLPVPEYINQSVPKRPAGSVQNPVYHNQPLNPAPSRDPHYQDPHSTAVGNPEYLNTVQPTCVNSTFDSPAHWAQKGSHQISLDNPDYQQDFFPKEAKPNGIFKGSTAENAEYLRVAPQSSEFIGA
Sequence of Ba/F3-EGFR-D770_N771insSVD cells (P00533 with tags, fused parts or gaps DUP768-770): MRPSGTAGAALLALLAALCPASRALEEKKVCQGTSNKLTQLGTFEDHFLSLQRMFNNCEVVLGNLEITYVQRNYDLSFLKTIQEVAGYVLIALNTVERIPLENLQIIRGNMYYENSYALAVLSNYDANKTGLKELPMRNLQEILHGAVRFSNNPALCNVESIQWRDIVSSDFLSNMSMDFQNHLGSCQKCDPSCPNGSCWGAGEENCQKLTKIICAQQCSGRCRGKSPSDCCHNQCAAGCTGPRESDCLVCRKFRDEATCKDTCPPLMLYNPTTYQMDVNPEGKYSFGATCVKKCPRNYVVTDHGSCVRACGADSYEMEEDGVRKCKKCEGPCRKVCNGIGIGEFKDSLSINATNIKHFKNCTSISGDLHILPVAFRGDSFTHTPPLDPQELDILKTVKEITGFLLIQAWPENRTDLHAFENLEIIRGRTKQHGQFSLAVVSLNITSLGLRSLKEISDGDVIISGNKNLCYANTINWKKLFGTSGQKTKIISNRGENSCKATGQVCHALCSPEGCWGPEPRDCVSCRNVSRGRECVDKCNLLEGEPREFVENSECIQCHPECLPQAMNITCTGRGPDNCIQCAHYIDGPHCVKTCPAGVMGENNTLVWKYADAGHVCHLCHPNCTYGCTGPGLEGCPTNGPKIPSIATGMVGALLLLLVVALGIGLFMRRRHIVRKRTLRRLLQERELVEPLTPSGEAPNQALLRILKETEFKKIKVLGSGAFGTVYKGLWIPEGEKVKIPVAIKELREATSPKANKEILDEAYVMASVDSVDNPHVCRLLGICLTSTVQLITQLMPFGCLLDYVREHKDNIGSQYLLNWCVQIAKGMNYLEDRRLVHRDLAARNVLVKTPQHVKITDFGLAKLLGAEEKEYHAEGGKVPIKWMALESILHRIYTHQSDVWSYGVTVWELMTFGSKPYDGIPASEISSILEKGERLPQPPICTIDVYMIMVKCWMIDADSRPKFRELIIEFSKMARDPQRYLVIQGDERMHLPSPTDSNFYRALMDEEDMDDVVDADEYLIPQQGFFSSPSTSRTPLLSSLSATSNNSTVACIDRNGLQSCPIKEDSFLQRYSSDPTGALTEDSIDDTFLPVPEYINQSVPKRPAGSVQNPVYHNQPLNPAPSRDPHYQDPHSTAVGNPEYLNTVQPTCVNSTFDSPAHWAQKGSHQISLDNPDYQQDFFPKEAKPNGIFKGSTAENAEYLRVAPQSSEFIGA

A word on the IC50: it is the concentration that inhibits the measured activity by half. For `Cc1c(Cl)cccc1Nc1c(-c2ccncc2OCC2COC(C)(C)CO2)[nH]c2c1C(=O)NCC2C` (stereo not shown) [Example 62, 3-(3-chloro-2-methyl-anilino)-2-[3-[(5,5-dimethyl-1,4-dioxan-2-yl)methoxy]-4-pyridyl]-7-methyl-1,5,6,7-tetrahydropyrrolo[3,2-c]pyridin-4-one], the “mutEGFR (D770_N771insSVD) kinase assay IC50” value (shortened to “mutEGFR”) in test [1] stood at 0.329 nM. Besides, on Bub1 (setting [3]), the IC50 amounted to 8030 nM. In addition, the results for the GI50 (in test [2]; on Ba/F3-EGFR-WT cells) were 52.6 nM and 1100 nM, respectively.

`COc1c(Cl)cccc1Nc1c(-c2ccncc2OCC2OCCC2(F)F)[nH]c2c1C(=O)N[C@H](C)C2` (single isomer, unassigned) [Example 72]: the “mutEGFR” value in test [1] was determined as 0.151 nM. The molecule further returned a 50% inhibitory concentration (IC50) on Bub1 (setting [3]) of 7070 nM. Also, the GI50 is 36.6 nM in test [2] and 628 nM on Ba/F3-EGFR-WT cells.

For `COc1c(Cl)cccc1Nc1c(-c2ccncc2OCCC(C)OC)[nH]c2c1C(=O)N[C@H](C)C2` (single isomer, unassigned) [Example 122], in test [1], the “mutEGFR” value is 0.122 nM. In addition, the IC50 on Bub1 (setting [3]) was 741 nM. The results for the GI50 (in test [2]; on Ba/F3-EGFR-WT cells) were 23.8 nM and 506 nM, respectively.

With `COc1c(Cl)cccc1Nc1c(-c2ccncc2OCC2COCCO2)[nH]c2c1C(=O)N[C@@H]1CCC[C@H]21` (single isomer, unassigned) [Example 53], in test [1], the “mutEGFR” value was found to be 0.282 nM. The same molecule had an IC50 against Bub1 (setting [3]) of 14500 nM. For the same molecule, the results for the GI50 (in test [2]; on Ba/F3-EGFR-WT cells) were 34.9 nM and 712 nM, respectively.

`COc1c(Cl)cccc1Nc1c(-c2ccncc2OC[C@@H]2CN(C)CCO2)[nH]c2c1C(=O)N[C@H](C)C2` [Example 11, (6R)-3-(3-chloro-2-methoxyanilino)-6-methyl-2-(3-{[(2S)-4-methylmorpholin-2-yl]methoxy}pyridin-4-yl)-1,5,6,7-tetrahydro-4H-pyrrolo[3,2-c]pyridin-4-one]: in test [1], the “mutEGFR” value came out at 0.179 nM. On Bub1 (setting [3]), the IC50 was above 20000 nM. Further, the GI50 in test [2] was 17.8 nM; on Ba/F3-EGFR-WT cells, 264 nM.

On to `COc1c(Cl)cccc1Nc1c(-c2ccncc2OCC2COCCO2)[nH]c2c1C(=O)NCC2C` (single isomer, unassigned) [Example 35, 3-(3-chloro-2-methoxy-anilino)-2-[3-(1,4-dioxan-2-ylmethoxy)-4-pyridyl]-7-methyl-1,5,6,7-tetrahydropyrrolo[3,2-c]pyridin-4-one], for which the “mutEGFR” value in test [1] is 0.272 nM. At Bub1 (setting [3]), this molecule registered an IC50 of 12400 nM. The GI50 in test [2] was found to be 54.1 nM; on Ba/F3-EGFR-WT cells, 811 nM.

On to `COc1c(Cl)cccc1Nc1c(-c2ccncc2OC[C@@H]2CN(CC(F)F)CCO2)[nH]c2c1C(=O)N[C@H](C)C2` [Example 12, (6R)-3-(3-chloro-2-methoxyanilino)-2-(3-{[(2S)-4-(2,2-difluoroethyl)morpholin-2-yl]methoxy}pyridin-4-yl)-6-methyl-1,5,6,7-tetrahydro-4H-pyrrolo[3,2-c]pyridin-4-one], for which, in test [1], the “mutEGFR” value turned out to be 0.172 nM. This molecule also displayed an IC50 on Bub1 (setting [3]) above 20000 nM. The GI50 in test [2] was found to be 48.7 nM; on Ba/F3-EGFR-WT cells, 719 nM.

Consider `COc1c(Cl)cccc1Nc1c(-c2ccncc2OCC(C)(C)OC)[nH]c2c1C(=O)NCC2CCO` (stereo not shown) [Example 13, 3-(3-chloro-2-methoxyanilino)-7-(2-hydroxyethyl)-2-[3-(2-methoxy-2-methylpropoxy)pyridin-4-yl]-1,5,6,7-tetrahydro-4H-pyrrolo[3,2-c]pyridin-4-one], for which the “mutEGFR” value in test [1] came out at 0.189 nM. At Bub1 (setting [3]), this molecule gave an IC50 of 3630 nM. In addition, the figures for the GI50 (in test [2]; at Ba/F3-EGFR-WT cells) were 35 nM and 339 nM, respectively.

Take `COc1c(Cl)cccc1Nc1c(-c2ccncc2OCC2COC(C)(C)CO2)[nH]c2c1C(=O)NC1(CCC1)C2` (single isomer, unassigned) [Example 131, 3′-(3-chloro-2-methoxyanilino)-2′-{3-[(5,5-dimethyl-1,4-dioxan-2-yl)methoxy]pyridin-4-yl}-1′,7′-dihydrospiro[cyclobutane-1,6′-pyrrolo[3,2-c]pyridin]-4′(5′H)-one]: the “mutEGFR” value in test [1] was determined as 0.318 nM. The IC50 at Bub1 (setting [3]) worked out at 1670 nM. For the same molecule, the GI50 in test [2] was 48.4 nM; at Ba/F3-EGFR-WT cells, 980 nM.

Turning to `COc1c(Cl)cccc1Nc1c(-c2ccncc2OC[C@@H]2CCCO2)[nH]c2c1C(=O)NCC2CCO` (single isomer, unassigned) [Example 17], the “mutEGFR” value in test [1] is 0.238 nM. This molecule registered an IC50 at Bub1 (setting [3]) above 20000 nM. Moreover, the GI50 in test [2] came out at 230 nM; on Ba/F3-EGFR-WT cells, 1580 nM.

For `COc1c(Cl)cccc1Nc1c(-c2ccncc2OC[C@@H]2CN(C)CCO2)[nH]c2c1C(=O)N[C@@H]1CCC[C@H]21` [Example 64, (5aR,8aS)-3-(3-chloro-2-methoxyanilino)-2-(3-{[(2S)-4-methylmorpholin-2-yl]methoxy}pyridin-4-yl)-5,5a,6,7,8,8a-hexahydrocyclopenta[b]pyrrolo[2,3-d]pyridin-4(1H)-one], the “mutEGFR” value in test [1] was found to be 0.361 nM. This molecule had an IC50 against Bub1 (setting [3]) above 20000 nM. The GI50 in test [2] is 47.6 nM; on Ba/F3-EGFR-WT cells, 643 nM.

As to `COc1c(Cl)cccc1Nc1c(-c2ccncc2OC[C@@H]2CCCO2)[nH]c2c1C(=O)N[C@H]1CCC[C@@H]21` [Example 57, (5aS,8aR)-3-(3-chloro-2-methoxyanilino)-2-(3-{[(2S)-oxolan-2-yl]methoxy}pyridin-4-yl)-5,5a,6,7,8,8a-hexahydrocyclopenta[b]pyrrolo[2,3-d]pyridin-4(1)-one], the “mutEGFR” value in test [1] was 0.246 nM. Moreover, at Bub1 (setting [3]), the IC50 was 281 nM. The GI50 amounted to 195 nM in test [2] and 1710 nM on Ba/F3-EGFR-WT cells.

With `COc1c(Cl)cccc1Nc1c(-c2ccncc2OCC2COC(C)(C)CO2)[nH]c2c1C(=O)NCC2C` (single isomer, unassigned) [Example 95, 3-(3-chloro-2-methoxy-anilino)-2-[3-[(5,5-dimethyl-1,4-dioxan-2-yl)methoxy]-4-pyridyl]-7-methyl-1,5,6,7-tetrahydropyrrolo[3,2-c]pyridin-4-one], in test [1], the “mutEGFR” value worked out at 0.504 nM. Further, the half-maximal inhibitory concentration (IC50) at Bub1 (read-out: Bub1 high ATP (2 mM) IC50, TR-FRET) was above 20000 nM. In addition, the GI50 was determined as 14.9 nM in test [2] and 415 nM at Ba/F3-EGFR-WT cells.

For the molecule `COc1c(Cl)cccc1Nc1c(-c2ccncc2OC[C@@H]2CCCO2)[nH]c2c1C(=O)NC1(CCC1)C2` [Example 126, 3′-(3-chloro-2-methoxyanilino)-2′-(3-{[(2S)-oxolan-2-yl]methoxy}pyridin-4-yl)-1′,7′-dihydrospiro[cyclobutane-1,6′-pyrrolo[3,2-c]pyridin]-4′(5′H)-one], the “mutEGFR” value in test [1] amounted to 0.279 nM. 1100 nM corresponded to half-maximal inhibition against Bub1 (setting [3]) (IC50). For the same molecule, the GI50 in test [2] was 46.4 nM; on Ba/F3-EGFR-WT cells it was 814 nM.

Turning to `Cc1c(Cl)cccc1Nc1c(-c2ccncc2OC[C@@H]2CCCO2)[nH]c2c1C(=O)NCC2C` (single isomer, unassigned) [Example 59], in test [1], the “mutEGFR” value is 0.285 nM. At Bub1 (setting [3]), this molecule had an IC50 of 16400 nM. Also, the GI50 in test [2] amounted to 41.9 nM; at Ba/F3-EGFR-WT cells, 609 nM.

`COc1c(Cl)cccc1Nc1c(-c2ccncc2OCC2COC(C)(C)CO2)[nH]c2c1C(=O)N[C@H](C)C2` (single isomer, unassigned) [Example 78]: the “mutEGFR” value in test [1] stood at 0.26 nM. Also, the IC50 at Bub1 (setting [3]) is above 20000 nM. Also, the GI50 in test [2] was 20.7 nM; at Ba/F3-EGFR-WT cells it was 488 nM.

On to `Cc1c(Cl)cccc1Nc1c(-c2ccncc2OCC2CCCCO2)[nH]c2c1C(=O)NCC2C` (single isomer, unassigned) [Example 118, 3-(3-chloro-2-methyl-anilino)-7-methyl-2-[3-(tetrahydropyran-2-ylmethoxy)-4-pyridyl]-1,5,6,7-tetrahydropyrrolo[3,2-c]pyridin-4-one], for which the “mutEGFR” value in test [1] came to 0.431 nM. Besides, at Bub1 (setting [3]), the IC50 was > 20000 nM and 19400 nM. Moreover, the GI50 came to 22.3 nM in test [2] and 938 nM at Ba/F3-EGFR-WT cells.

In the case of `COc1c(Cl)cccc1Nc1c(-c2ccncc2OCC(C)OC)[nH]c2c1C(=O)N[C@H](C)C2` (single isomer, unassigned) [Example 81], the “mutEGFR” value in test [1] was 0.157 nM. Half-maximal inhibition against Bub1 (setting [3]) (IC50) required 4870 nM. In addition, the GI50 in test [2] came out at 44 nM; at Ba/F3-EGFR-WT cells it was 583 nM.

`COc1c(Cl)cccc1Nc1c(-c2ccncc2OCC2COC(C)(C)CO2)[nH]c2c1C(=O)NC1(CC1)C2` (single isomer, unassigned) [Example 133, 3′-(3-chloro-2-methoxyanilino)-2′-(3-{[5,5-dimethyl-1,4-dioxan-2-yl]methoxy}pyridin-4-yl)-1′,7′-dihydrospiro[cyclopropane-1,6′-pyrrolo[3,2-c]pyridin]-4′(5′H)-one]: the “mutEGFR” value in test [1] worked out at 0.341 nM. The molecule also showed an IC50 against Bub1 (setting [3]) of 1650 nM. In addition, the results for the GI50 (in test [2]; on Ba/F3-EGFR-WT cells) were 22.2 nM and 484 nM, respectively.
